This is an account of results in patent publication US9149476B2, “Thiochromene derivatives as HIF hydroxylase inhibitors” (FibroGen, Inc., priority 2008, dated 2015).

Where a name gives a salt, the structure may show the parent alone.

T1 sequence (Q9GZT9 whole entry): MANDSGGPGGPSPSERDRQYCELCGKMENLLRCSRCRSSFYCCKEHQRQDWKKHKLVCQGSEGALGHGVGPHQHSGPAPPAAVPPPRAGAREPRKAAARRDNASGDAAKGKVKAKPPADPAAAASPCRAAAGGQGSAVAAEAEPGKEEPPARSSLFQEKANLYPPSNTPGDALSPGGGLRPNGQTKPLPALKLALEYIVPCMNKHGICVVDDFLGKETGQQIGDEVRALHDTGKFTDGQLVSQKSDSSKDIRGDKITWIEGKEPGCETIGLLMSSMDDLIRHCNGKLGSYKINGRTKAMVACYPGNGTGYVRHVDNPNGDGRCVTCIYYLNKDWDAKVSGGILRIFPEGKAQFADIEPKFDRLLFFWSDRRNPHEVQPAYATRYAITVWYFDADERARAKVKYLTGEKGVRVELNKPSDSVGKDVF

One assay has as its target T1, HIF-PH2 (EGLN1) (Homo sapiens, UniProt Q9GZT9).
T1 construct: made in house; host or cells: insect Hi5 cells
Nature of the assay: HIF-PH assay (14CO2 capture, peptide-dependent turnover). To be noted: compound concentration 7.4 μM. It is filed as biochemical. The text has this: Ketoglutaric acid α-[1-^14C]-sodium salt, alpha-ketoglutaric acid sodium salt, and HPLC purified peptide may be obtained from commercial sources, e.g., Perkin-Elmer (Wellesley Mass.), Sigma-Aldrich, and SynPep Corp. (Dublin Calif.), respectively. Peptides for use in the assay may be fragments of HIFα as described above or as disclosed in International Publication WO 2005/118836, incorporated by reference herein. For example, a HIF peptide for use in the HIF-PH assay is [methoxycoumarin]-DLDLEALAPYIPADDDFQL-amide (SEQ ID NO:2). HIF-PH, e.g., HIF-PH2 (EGLN1), can be expressed in, e.g., insect Hi5 cells, and partially purified, e.g., through a SP ion exchange chromatography column. Enzyme activity is determined by capturing ^14CO2 using an assay described by Kivirikko and Myllyla (1982, Methods Enzymol. 82:245-304). Assay reactions contain 50 mM HEPES (pH 7.4), 100 μM α-ketoglutaric acid sodium salt, 0.30 μCi/mL ketoglutaric acid α-[1-^14C]-sodium salt, 40 μM FeSO4, 1 mM ascorbate, 1541.8 units/mL Catalase, with or without 50 μM peptide substrate and various concentrations of compound of the invention. Reactions are initiated by addition of HIF-PH enzyme.
The peptide-dependent percent turnover is calculated by subtracting percent turnover in the absence of peptide from percent turnover in the presence of substrate peptide. Percent inhibition and IC50 are calculated using peptide-dependent percent turnover at given inhibitor concentrations. Calculation of IC50 values for each inhibitor is conducted using GraFit software (Erithacus Software Ltd., Surrey UK).
Representative compounds of the invention were analyzed using the HIF-PH assay described above. Table 1 presents enzyme inhibition data for exemplary compounds against HIF-PH2, a representative HIF prolyl hydroxylase. By inhibiting HIF prolyl hydroxylase, compounds of the invention stabilize HIFα, which then combines with HIFβ to form an active transcription factor that increases expression of various genes involved in numerous beneficial cellular processes.
For `O=C(O)CNC(=O)c1c(O)c2cc(Cl)cc(C#Cc3ccccc3)c2sc1=O` [Example 56, [(6-Chloro-4-hydroxy-2-oxo-8-phenylethynyl-2H-thiochromene-3-carbonyl)-amino]-acetic acid], 7.4 µM produced 99.7% inhibition. The same measure, in the same setting: the figure for `C[C@H](NC(=O)c1c(O)c2ccccc2sc1=O)C(=O)O` [Example 57, 2-(S)-[(4-Hydroxy-2-oxo-2H-thiochromene-3-carbonyl)-amino]-propionic acid] is 98.4%.

Staying with this assay, now noted: compound concentration 12.5 μM.
`CCCCOc1ccc2c(O)c(C(=O)NCC(=O)O)c(=O)sc2c1` [Example 26, [(7-Butoxy-4-hydroxy-2-oxo-2H-thiochromene-3-carbonyl)-amino]-acetic acid]: at 12.5 µM the inhibition was 96.2%. Same read-out and setting: in the case of `Cc1ccc2c(O)c(C(=O)NCC(=O)O)c(=O)sc2c1` [Example 6, [(4-Hydroxy-7-methyl-2-oxo-2H-thiochromene-3-carbonyl)-amino]-acetic acid] it was 94.5%.

The same assay, now with this note: compound concentration 50 μM.
On to `COc1ccc2c(O)c(C(=O)NCC(=O)O)c(=O)sc2c1` [Example 1, [(4-Hydroxy-7-methoxy-2-oxo-2H-thiochromene-3-carbonyl)-amino]-acetic acid], for which the inhibition – broadly, the relative decrease from the control value, in per cent – at 50 µM is 97.3%.

In the case of `O=C(O)CNC(=O)c1c(O)c2cc(Cl)cc(Cc3ccccc3)c2sc1=O` [Example 42, [(8-Benzyl-6-chloro-4-hydroxy-2-oxo-2H-thiochromene-3-carbonyl)-amino]-acetic acid], testing at 50 µM gave an inhibition of 100%. The same measure, in the same setting: in the case of `O=C(O)CNC(=O)c1c(O)c2ccc(-c3ccc(F)cc3)cc2sc1=O` [Example 13, {[7-(4-Fluoro-phenyl)-4-hydroxy-2-oxo-2H-thiochromene-3-carbonyl]-amino}-acetic acid] it was 99.7%. `O=C(O)CNC(=O)c1c(O)c2ccc(C3CC3)cc2sc1=O` [Example 53, [(7-Cyclopropyl-4-hydroxy-2-oxo-2H-thiochromene-3-carbonyl)-amino]-acetic acid]: 50 µM produced 99% inhibition.

Compound `Cc1cc(Cl)cc2c(O)c(C(=O)NCC(=O)O)c(=O)sc12` [Example 22, [(6-Chloro-4-hydroxy-8-methyl-2-oxo-2H-thiochromene-3-carbonyl)-amino]-acetic acid] displayed an inhibition at 50 µM of 95.6%.

Compound `O=C(O)CNC(=O)c1c(O)c2cc(NC(=O)c3ccccc3)ccc2sc1=O` [Example 41, [(6-Benzoylamino-4-hydroxy-2-oxo-2H-thiochromene-3-carbonyl)-amino]-acetic acid] returned an inhibition at 50 µM of 100%. Still for that read-out and setting: the figure for `O=C(O)CNC(=O)c1c(O)c2ccc(-c3cc(Cl)cc(Cl)c3)cc2sc1=O` [Example 10, {[7-(3,5-Dichloro-phenyl)-4-hydroxy-2-oxo-2H-thiochromene-3-carbonyl]-amino}-acetic acid] is 96.7%. `O=C(O)CNC(=O)c1c(O)c2cc(Cl)cc(-c3cc(C(F)(F)F)cc(C(F)(F)F)c3)c2sc1=O` [Example 43, {[8-(3,5-Bis-trifluoromethyl-phenyl)-6-chloro-4-hydroxy-2-oxo-2H-thiochromene-3-carbonyl]-amino}-acetic acid] registered an inhibition at 50 µM of 100%. The same measure, in the same setting: the figure for `Cc1cccc2c(O)c(C(=O)NCC(=O)O)c(=O)sc12` [Example 23, [(4-Hydroxy-8-methyl-2-oxo-2H-thiochromene-3-carbonyl)-amino]-acetic acid] is 97.5%; for `Cn1nc(C(F)(F)F)cc1-c1ccc2c(O)c(C(=O)NCC(=O)O)c(=O)sc2c1` [Example 54, {[4-Hydroxy-7-(2-methyl-5-trifluoromethyl-2H-pyrazol-3-yl)-2-oxo-2H-thiochromene-3-carbonyl]-amino}-acetic acid] it is 98.6%; for `C[C@H](NC(=O)c1c(O)c2ccc(-c3cc(C(F)(F)F)nn3C)cc2sc1=O)C(=O)O` [Example 55, 2-(S)-{[4-Hydroxy-7-(2-methyl-5-trifluoromethyl-2H-pyrazol-3-yl)-2-oxo-2H-thiochromene-3-carbonyl]-amino}-propionic acid] it is 94.5%. Still for that read-out and setting: the figure for `O=C(O)CNC(=O)c1c(O)c2cccc(-c3cc(C(F)(F)F)cc(C(F)(F)F)c3)c2sc1=O` [Example 48, {[8-(3,5-Bis-trifluoromethyl-phenyl)-4-hydroxy-2-oxo-2H-thiochromene-3-carbonyl]-amino}-acetic acid] is 100%. Still for that read-out and setting: the figure for `O=C(O)CNC(=O)c1c(O)c2ccc(-c3cccnc3)cc2sc1=O` [Example 15, [(4-Hydroxy-2-oxo-7-pyridin-3-yl-2H-thiochromene-3-carbonyl)-amino]-acetic acid, sodium salt] is 95.2%; for `C[C@H](NC(=O)c1c(O)c2cc(Cl)ccc2sc1=O)C(=O)O` [Example 59, 2-(S)-[(6-Chloro-4-hydroxy-2-oxo-2H-thiochromene-3-carbonyl)-amino]-propionic acid] it is 95.6%. On to `COc1cccc(-c2ccc3c(O)c(C(=O)NCC(=O)O)c(=O)sc3c2)c1` [Example 8, {[4-Hydroxy-7-(3-methoxy-phenyl)-2-oxo-2H-thiochromene-3-carbonyl]-amino}-acetic acid], for which the inhibition at 50 µM came to 97.5%. The same measure, in the same setting: in the case of `O=C(O)CNC(=O)c1c(O)c2cc(Cl)cc(-c3cccnc3)c2sc1=O` [Example 46, [(6-Chloro-4-hydroxy-2-oxo-8-pyridin-3-yl-2H-thiochromene-3-carbonyl)-amino]-acetic acid] it was 100%; in that of `O=C(O)CNC(=O)c1c(O)c2ccc(-c3ccc4ccccc4c3)cc2sc1=O` [Example 18, [(4-Hydroxy-7-naphthalen-2-yl-2-oxo-2H-thiochromene-3-carbonyl)-amino]-acetic acid], 87.9%; in that of `O=C(O)CNC(=O)c1c(O)c2ccc(-c3cncc(F)c3)cc2sc1=O` [Example 16, {[7-(5-Fluoro-pyridin-3-yl)-4-hydroxy-2-oxo-2H-thiochromene-3-carbonyl]-amino}-acetic acid], 95.4%. Consider `Cn1nc(C(F)(F)F)cc1-c1cc(Cl)cc2c(O)c(C(=O)NCC(=O)O)c(=O)sc12` [Example 45, {[6-Chloro-4-hydroxy-8-(2-methyl-5-trifluoromethyl-2H-pyrazol-3-yl)-2-oxo-2H-thiochromene-3-carbonyl]-amino}-acetic acid], for which at 50 µM the inhibition was 100%. Same read-out and setting: the figure for `COc1ccccc1-c1ccc2c(O)c(C(=O)NCC(=O)O)c(=O)sc2c1` [Example 9, {[4-Hydroxy-7-(2-methoxy-phenyl)-2-oxo-2H-thiochromene-3-carbonyl]-amino}-acetic acid] is 97.2%.

Still in this assay, the particulars now being: compound concentration 67 μM.
With `O=C(O)CNC(=O)c1c(O)c2cc(Br)ccc2sc1=O` [Example 27, [(6-Bromo-4-hydroxy-2-oxo-2H-thiochromene-3-carbonyl)-amino]-acetic acid], testing at 67 µM gave an inhibition of 100%. `O=C(O)CNC(=O)c1c(O)c2ccc(-c3cc(C(F)(F)F)cc(C(F)(F)F)c3)cc2sc1=O` [Example 29, {[7-(3,5-Bis-trifluoromethyl-phenyl)-4-hydroxy-2-oxo-2H-thiochromene-3-carbonyl]-amino}-acetic acid] gave an inhibition at 67 µM of 96.4%. The same measure, in the same setting: in the case of `O=C(O)CNC(=O)c1c(O)c2cc(-c3ccccc3C(F)(F)F)ccc2sc1=O` [Example 34, {[4-Hydroxy-2-oxo-6-(2-trifluoromethyl-phenyl)-2H-thiochromene-3-carbonyl]-amino}-acetic acid] it was 99.8%; in that of `O=C(O)CNC(=O)c1c(O)c2cc(-c3ccc(F)cc3)ccc2sc1=O` [Example 38, {[6-(4-Fluoro-phenyl)-4-hydroxy-2-oxo-2H-thiochromene-3-carbonyl]-amino}-acetic acid], 96.6%; in that of `O=C(O)CNC(=O)c1c(O)c2cc(-c3cc(C(F)(F)F)cc(C(F)(F)F)c3)ccc2sc1=O` [Example 33, {[6-(3,5-Bis-trifluoromethyl-phenyl)-4-hydroxy-2-oxo-2H-thiochromene-3-carbonyl]-amino}-acetic acid], 99.4%. Still for that read-out and setting: the figure for `O=C(O)CNC(=O)c1c(O)c2ccc(-c3cccc(F)c3)cc2sc1=O` [Example 30, {[7-(3-Fluoro-phenyl)-4-hydroxy-2-oxo-2H-thiochromene-3-carbonyl]-amino}-acetic acid] is 99.1%. Still for that read-out and setting: in the case of `COc1ccc(-c2ccc3sc(=O)c(C(=O)NCC(=O)O)c(O)c3c2)cc1` [Example 35, {[4-Hydroxy-6-(4-methoxy-phenyl)-2-oxo-2H-thiochromene-3-carbonyl]-amino}-acetic acid] it was 99.1%.

The same assay, now with this note: compound concentration 200 μM.
On to `COc1cc2sc(=O)c(C(=O)NCC(=O)O)c(O)c2cc1OC` [Example 2, [(4-Hydroxy-6,7-dimethoxy-2-oxo-2H-thiochromene-3-carbonyl)-amino]-acetic acid], for which at 200 µM the inhibition was 99.4%.
